The results in this text go back to paper PMC6853232, “Discovery and evaluation of novel synthetic 5-alkyl-4-oxo-4,5-dihydro-[1,2,4]triazolo[4,3-a]quinoxaline-1-carbox-amide derivatives as anti-inflammatory agents” (Journal of Enzyme Inhibition and Medicinal Chemistry, 2019).

The nature of series [1]: MTT assay for cell viability. The series is classed as cell-based, mouse. The settings on record: mouse, RAW264.7 macrophage cells, 24 h, RAW264.7 cells. The protocol: The RAW 264.7 mouse macrophage cell line was obtained from the China Cell Line Bank (Beijing, China). Cells were cultured in complete medium (DMEM supplemented with 10% heat-inactivated FBS, 3 mM glutamine and antibiotics (100 U/mL penicillin and 100 U/mL streptomycin)) at 37 °C in a humidified incubator containing 5% CO2 and 95% air. […]
Cell viability studies induced by synthesised compounds were evaluated by 3-(4,5-dimethylthiazol-2-yl)-2,5-diphenyltetrazolium bromide (MTT) assay. RAW264.7 macrophages were seeded in 96-well plates at a density of 5 × 10^5 cells/mL in complete medium and incubated for 24 h (100 µL/well). Then the cells were treated with different concentrations of synthesised compounds for 24 h. 150 µL MTT (5 g/L in PBS) was added to each well and the cells were further incubated for 4 h. The supernatant was removed and the cells were lysed with 150 µL/well DMSO. The optical density was measured at 570 nm on a microplate reader (Thermo Scientific, MA, USA).
Background: Tetrazolium dyes change colour on reduction, which living cells bring about.

With `CCCCn1c(=O)c2nnc(C(N)=O)n2c2ccccc21` [6a, 5-butyl-4-oxo-4,5-dihydro-[1,2, 4]triazolo[4,3-a]quinoxaline-1-carboxamide], the melting point was in the range of 262 to 264 °C. This compound came in with a viability at 24 h, 30 µM in series [1] of 92.3 ± 1.53%.
The corresponding values for `CCCCCn1c(=O)c2nnc(C(N)=O)n2c2ccccc21` [6b, 5-pentyl-4-oxo-4,5-dihydro-[1,2, 4]triazolo[4,3-a]quinoxaline-1-carboxamide] are 232 to 234 °C and 98 ± 1.1%.
Regarding `CCCCCCn1c(=O)c2nnc(C(N)=O)n2c2ccccc21` [6c, 5-hexyl-4-oxo-4,5-dihydro-[1,2, 4]triazolo[4,3-a]quinoxaline-1-carboxamide], the melting point lay within 239 to 241 °C. The viability at 24 h, 30 µM in series [1] was determined as 99.11 ± 0.69%.
The compound `CCCCCCCn1c(=O)c2nnc(C(N)=O)n2c2ccccc21` [6d, 5-heptyl-4-oxo-4,5-dihydro-[1,2, 4]triazolo[4,3-a]quinoxaline-1-carboxamide] displayed a melting point of 231 to 233 °C. The viability at 24 h, 30 µM in series [1] was found to be 81 ± 1.1%.
`CCCCCCCCCn1c(=O)c2nnc(C(N)=O)n2c2ccccc21` [6f, 5-nonyl-4-oxo-4,5-dihydro-[1,2, 4]triazolo[4,3-a]quinoxaline-1-carboxamide] returned a melting point of 236 to 238 °C. In addition, in series [1], the viability at 24 h, 10 µM stood at 99.2 ± 1.65% and the viability at 24 h, 30 µM was determined as 60 ± 3.4%.
Compound `NC(=O)c1nnc2c(=O)n(Cc3ccccc3)c3ccccc3n12` [6g, 5-benzyl-4-oxo-4,5-dihydro-[1,2, 4]triazolo[4,3-a]quinoxaline-1-carboxamide] gave a melting point of 268 to 270 °C. Also, in series [1], the viability at 24 h, 30 µM was 85 ± 1%.
For the compound `NC(=O)c1nnc2c(=O)n(Cc3ccccc3F)c3ccccc3n12` [6h, 5-(2-fluorobenzyl)-4-oxo-4,5-dihydro-[1,2, 4]triazolo[4,3-a]quinoxaline-1-carboxamide], the melting point was in the range of 273 to 275 °C. In series [1], this compound showed a viability at 24 h, 10 µM of 98.5 ± 1.76% and a viability at 24 h, 30 µM of 66.7 ± 1.33%.
The corresponding values for `NC(=O)c1nnc2c(=O)n(Cc3cccc(F)c3)c3ccccc3n12` [6i, 5–(3-fluorobenzyl)-4-oxo-4,5-dihydro-[1,2, 4]triazolo[4,3-a]quinoxaline-1-carboxamide] are 276 to 278 °C, 99.5 ± 4.17% and 59.3 ± 2.52%.
For `NC(=O)c1nnc2c(=O)n(Cc3ccc(F)cc3)c3ccccc3n12` [6j, 5-(4-fluorobenzyl)-4-oxo-4,5-dihydro-[1,2, 4]triazolo[4,3-a]quinoxaline-1-carboxamide], in that order: 274 to 276 °C, 73.5 ± 2.27% and 48 ± 3%.
Compound `NC(=O)c1nnc2c(=O)n(Cc3ccccc3Cl)c3ccccc3n12` [6k, 5-(2-chlorobenzyl)-4-oxo-4,5-dihydro-[1,2, 4]triazolo[4,3-a]quinoxaline-1-carboxamide] returned a melting point of 278 to 280 °C. Also, in series [1], the viability at 24 h, 10 µM was found to be 74.6 ± 1.38% and the viability at 24 h, 30 µM was 46.3 ± 2.89%.
For `NC(=O)c1nnc2c(=O)n(Cc3cccc(Cl)c3)c3ccccc3n12` [6l, 5-(3-chlorobenzyl)-4-oxo-4,5-dihydro-[1,2, 4]triazolo[4,3-a]quinoxaline-1-carboxamide], in that order: 269 to 271 °C, 87.9 ± 5.18% and 51.7 ± 2.12%.
For `NC(=O)c1nnc2c(=O)n(Cc3ccc(Cl)cc3)c3ccccc3n12` [6m, 5-(4-chlorobenzyl)-4-oxo-4,5-dihydro-[1,2, 4]triazolo[4,3-a]quinoxaline-1-carboxamide], in that order: 282 to 284 °C, 82.2 ± 1.74% and 44.7 ± 3.06%.
Compound `COc1cccc(Cn2c(=O)c3nnc(C(N)=O)n3c3ccccc32)c1` [6n, 5-(3-methoxybenzyl)-4-oxo-4,5-dihydro-[1,2, 4]triazolo[4,3-a]quinoxaline-1-carboxamide] showed a melting point of 266 to 268 °C. This compound also came in with a viability at 24 h, 30 µM in series [1] of 93.33 ± 0.58%.

Usually viability stands for a per cent measure of how many cells are alive, often set against a control. Lower therefore signals a greater loss of cells. One may read the melting point as the temperature, or range, at which the solid turns liquid.
